# Key:
# [1] = system: osteoporosis model (rat OVX); assay: Osteoporosis model (rat OVX), Test 2: 4 weeks administration, compound A and alendronate; format: in vivo; settings: Test 2, OVX rats, 24 hour urine 5 weeks after the administration, EIA method (FIG. 7)
# Procedure: (§1) Female SD rats of 16 weeks of age (Charles River Japan) were used in the test. Under anesthesia, both sides of ovaries were exposed, and ovaries of all groups excluding the sham operation group were ligated and extracted. In the sham operation group, only an operation of exposing ovaries to the outside of abdomen was carried out.
# (§2) Preparation of the aforementioned model was carried out by referring to the method of Kalu et al., (Bone Miner., vol. 15, p. 175 (1991)) and the method of Frost et al., (Bone Miner., vol. 18, p. 227 (1992)).
# Before carrying out the ovariectomy (OVX), bone mineral density of tibial metaphysis at 5 mm from the tibial proximal end was measured by pQCT. By leaving for 8 weeks after the OVX, significant reduction of the bone mineral density of tibial metaphysis was confirmed by re-measurement. […] After 4 weeks of the administration, the cortical bone thickness and bone mineral density of the tibial diaphysis were measured in the same manner as described in the above. In addition, urine samples were collected during 24 hours 5 weeks after the administration, and the urinary deoxypyridinoline was measured by an EIA method (Osteolinks “DPD”, mfd. by Sumitomo Pharmaceutical Biomedical). […]
# [2] = system: osteoporosis model (rat OVX); assay: Osteoporosis model (rat OVX), Test 1: 12 weeks administration, compound A and incadronate; format: in vivo; settings: for femoral bone strength (three-point bending test) / femoral cortical bone mineral density (pQCT) / femoral cortical bone thickness (pQCT): OVX rats, compound A 30 mg/kg twice a day oral, incadronate 1 mg/kg once a day oral; for femoral bone strength (three-point bending test): in comparison with Control Group 1 (FIG. 1); for femoral cortical bone mineral density (pQCT): in comparison with Control Group 1 (FIG. 2); for femoral cortical bone thickness (pQCT): in comparison with Control Group 1 (FIG. 3)
# Procedure: as §1, §2
# Before carrying out the ovariectomy (OVX), bone mineral density at 5 mm from the tibial proximal end was measured by pQCT. By leaving for 8 weeks after the OVX, significant reduction of the bone mineral density was confirmed. […] The bone density was measured every 4 weeks after the administration, and urine samples were collected during 24 hours from the previous day of the completion of observation period. After completion of the urine collection, they were sacrificed by exsanguinations under ether anesthesia, and samples were collected.
# Bone strength of the femoral diaphysis was measured by three-point bending test (TK-252c, mfd. by Muromachi Kikai). A femur was gently put on a supporting table of 20 mm in distance between supporting points, a bending load was applied on the midpoint of femur at a rate of 10 mm/min, and a load-deformation curve was recorded until its breakage. Maximum value of the load-deformation curve was used as the ultimate force, and the slope of the linear portion of the load-defomation curve was used as the stiffness.
# Using a peripheral quantitative computed tomography (PQCT, XCT960A, mfd. by Norland-Stratec), cross-section of the bone was scaned, and bone mineral density and the like various parameters were calculated by analyzing the image.
# As a bone metabolism marker, measurement of lysylpyridinoline (deoxypyridinoline hereinafter) value was carried out by SRL MediSearch using an HPLC method (Uebelhart, D et al., Bone Miner., vol. 8, p. 87 (1990)). In order to exclude influence of urine volume, the thus obtained deoxypyridinoline value was corrected by dividing the value by urine creatinine concentration or multiplying the 24 hour urine volume.
# The compound of Production Example 93 (6-(4-fluoropiperidin-1-yl)-3-(6-methoxypyridin-2-yl)-1,2,4-triazolo[4,3-b]pyridazine: to be referred to as compound A hereinafter) which is a typical compound of the compound (I) was used as the non-living body-derived non-peptide osteoblast differentiation promoting compound of the invention, and incadronate (Bisphonal (registered trademark)) as the bisphosphonate, respectively. Groups in which the compound A or incadronate alone and a parathyroid hormone hPTH(1-34) are to be administered were used as comparative groups. In addition, the drug-non-administered OVX group and the sham operation group were used as control groups. The compound A was orally administered twice a day as a 0.5% methyl cellulose suspension of 30 mg/5 ml/kg, and incadronate was orally administered once a day as an aqueous solution of 1 mg/2.5 ml/kg. The hPTH(1-34) was subcutaneously administered once a day as a physiological saline solution of 3 μg/1 ml/kg. To the control groups was orally administered 0.5% methyl cellulose twice a day.
Compound,"urinary deoxypyridinoline value (urine volume correction), bone resorption index [1]",femoral bone strength (three-point bending test) [2],femoral cortical bone mineral density (pQCT) [2],femoral cortical bone thickness (pQCT) [2],"urinary deoxypyridinoline value (urine volume correction), bone resorption index ([2]; Test 1, OVX rats, 24 hour urine, HPLC method (FIG. 4))"
"COc1cccc(-c2nnc3ccc(N4CCC(F)CC4)nn23)n1 [compound A, 6-(4-fluoropiperidin-1-yl)-3-(6-methoxypyridin-2-yl)-1,2,4-triazolo[4,3-b]pyridazine]",increased,increasing tendency,increasing tendency,increasing tendency,increased
"O=P(O)(O)C(NC1CCCCCC1)P(=O)(O)O [incadronate, reference compound]",,increasing tendency,increasing tendency,increasing tendency,
